According to US20250368627A1, “PYRAZOLESULFONAMIDES AS ANTITUMOR AGENTS” (Peloton Therapeutics, Inc., a fully owned subsidiary of …, priority 2019, published 2025):

How the values were obtained:
[1] = test system: HCT116 human colorectal carcinoma cells; experiment: CellTiter-Glo Luminescent Cell Viability Assay; type: cell-based; conditions: HCT-116, 72 h, 3 days
Method in brief: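 HCT116 cells were exposed for 3 days to compound in triplicate at final concentrations of 5 to 0.0002 […] (1:3 dilutions). Viability was read by CellTiter-Glo luminescence, and IC50 values were calculated.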

[2] = target: T1, DDB1DB/DCAF15 and RBM39 R1R2 complex (Homo sapiens, UniProt Q14498+Q66K64); experiment: DCAF15 RBM39 Complex Formation Assay (FRET); type: binding; conditions: FRET ratio Em 665/Em 615, incubated overnight at 4° C.
T1 construct: Amino acids 150 to 331 of RBM39 were cloned into pGEX4T3; GST (from vector pGEX4T3); TEV cleavage site (N); made in house; host or cells: DDB1DB/His-DCAF15: baculovirus/Sf9 co-expression; RBM39 R1R2: E. coli (pGEX4T3)
Method in brief: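 Ternary complex formation read by TR-FRET (Em 665/615, excitation 340 nm) after overnight incubation at 4° C of 20 nM baculovirus DDB1DB/His-DCAF15 and 50 nM E. coli RBM39 RRM1-RRM2 FLAG fragment with 14-point, 3-fold compound dilutions from 1 μM; EC50 from 4-parameter fit.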

T1 sequence (Q66K64 whole entry, the tested form may be a part): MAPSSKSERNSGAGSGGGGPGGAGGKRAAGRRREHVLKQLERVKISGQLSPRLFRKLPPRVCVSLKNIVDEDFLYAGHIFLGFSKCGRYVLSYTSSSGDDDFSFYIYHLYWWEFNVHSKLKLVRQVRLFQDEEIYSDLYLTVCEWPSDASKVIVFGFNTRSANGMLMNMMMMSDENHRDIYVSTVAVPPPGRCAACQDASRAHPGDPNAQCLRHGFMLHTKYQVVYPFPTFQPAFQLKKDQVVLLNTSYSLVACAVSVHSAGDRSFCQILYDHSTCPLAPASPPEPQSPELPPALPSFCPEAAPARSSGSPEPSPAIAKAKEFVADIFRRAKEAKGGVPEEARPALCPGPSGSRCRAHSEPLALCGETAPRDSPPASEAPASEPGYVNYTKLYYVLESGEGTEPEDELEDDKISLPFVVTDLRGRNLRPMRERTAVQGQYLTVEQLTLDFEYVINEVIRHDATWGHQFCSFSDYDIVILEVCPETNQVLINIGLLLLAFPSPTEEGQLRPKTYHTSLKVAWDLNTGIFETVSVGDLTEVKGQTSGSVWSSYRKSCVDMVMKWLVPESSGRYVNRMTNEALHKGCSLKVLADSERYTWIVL
T1 sequence (Q14498 150-331): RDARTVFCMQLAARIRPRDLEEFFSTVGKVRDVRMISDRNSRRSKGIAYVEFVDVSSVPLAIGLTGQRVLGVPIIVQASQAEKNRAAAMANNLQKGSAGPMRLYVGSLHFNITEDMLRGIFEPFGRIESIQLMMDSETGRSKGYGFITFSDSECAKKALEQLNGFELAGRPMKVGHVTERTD
T1 sequence (Q16531 with tags, fused parts or gaps DEL396-708 partner): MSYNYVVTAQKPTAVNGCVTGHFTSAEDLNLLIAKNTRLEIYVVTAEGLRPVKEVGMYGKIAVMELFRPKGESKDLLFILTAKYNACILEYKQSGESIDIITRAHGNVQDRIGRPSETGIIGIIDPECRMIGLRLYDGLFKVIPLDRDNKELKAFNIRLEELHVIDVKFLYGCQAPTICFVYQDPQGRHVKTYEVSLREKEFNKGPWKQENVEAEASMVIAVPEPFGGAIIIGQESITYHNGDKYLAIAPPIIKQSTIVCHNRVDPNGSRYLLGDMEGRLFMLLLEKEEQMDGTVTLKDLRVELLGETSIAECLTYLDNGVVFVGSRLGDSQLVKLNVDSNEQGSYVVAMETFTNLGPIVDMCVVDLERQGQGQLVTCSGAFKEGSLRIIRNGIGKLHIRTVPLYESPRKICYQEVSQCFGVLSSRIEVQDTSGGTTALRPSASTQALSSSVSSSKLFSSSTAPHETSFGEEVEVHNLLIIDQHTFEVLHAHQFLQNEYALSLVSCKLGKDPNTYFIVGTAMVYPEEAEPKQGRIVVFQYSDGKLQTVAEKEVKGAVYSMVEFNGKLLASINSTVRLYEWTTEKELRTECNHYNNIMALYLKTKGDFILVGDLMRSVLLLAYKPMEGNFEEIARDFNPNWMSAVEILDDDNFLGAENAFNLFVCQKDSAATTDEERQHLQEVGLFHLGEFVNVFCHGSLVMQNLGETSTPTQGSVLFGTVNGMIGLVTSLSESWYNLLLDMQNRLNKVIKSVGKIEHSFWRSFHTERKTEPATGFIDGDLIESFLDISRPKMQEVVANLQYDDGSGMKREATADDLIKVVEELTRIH

Structure (SMILES) | EC50 [1] [nM] | IC50 [2] [nM]
N#CCC1(n2cc(S(=O)(=O)Nc3ccc(Cl)c4c(C#N)c[nH]c34)cn2)COC1 [Compound 158, N-(4-chloro-3-cyano-1H-indol-7-yl)-1-[3-(cyanomethyl)oxetan-3-yl]pyrazole-4-sulfonamide] | 250 to 1000 | < 250
O=S(=O)(Nc1ccc(Cl)c2c(Cl)c[nH]c12)c1cn[nH]c1 [Compound 159, N-(3,4-dichloro-1H-indol-7-yl)-1H-pyrazole-4-sulfonamide] | < 250 | < 250
N#CCC1(n2cc(S(=O)(=O)Nc3ccc(Cl)c4c(Cl)c[nH]c34)cn2)COC1 [Compound 160, 1-[3-(cyanomethyl)oxetan-3-yl]-N-(3,4-dichloro-1H-indol-7-yl)pyrazole-4-sulfonamide] | < 250 | < 250
O=S(=O)(Nc1ccc(Cl)c2c(Cl)c[nH]c12)c1cnn(CCO)c1 [Compound 163, N-(3,4-dichloro-1H-indol-7-yl)-1-(2-hydroxyethyl)pyrazole-4-sulfonamide] | < 250 | < 250
O=S(=O)(Nc1ccc(Cl)c2c(Cl)c[nH]c12)c1cnn(C(CO)(CO)CCl)c1 [Compound 166, 1-[1-(chloromethyl)-2-hydroxy-1-(hydroxymethyl)ethyl]-N-(3,4-dichloro-1H-indol-7-yl)pyrazole-4-sulfonamide] | 250 to 1000 | < 250
O=S(=O)(Nc1ccc(Cl)c2c(Cl)c[nH]c12)c1cnn(C2(CO)COC2)c1 [Compound 167, N-(3,4-dichloro-1H-indol-7-yl)-1-[3-(hydroxymethyl)oxetan-3-yl]pyrazole-4-sulfonamide] | 250 to 1000 | < 250
COC(=O)C(C)(C)n1cc(S(=O)(=O)Nc2ccc(Cl)c3c(Cl)c[nH]c23)cn1 [Compound 168, methyl 2-[4-[3,4-dichloro-1H-indol-7-yl)sulfamoyl]pyrazol-1-yl]-2-methyl-propanoate] | 250 to 1000 | < 250
CC(C)(CO)n1cc(S(=O)(=O)Nc2ccc(Cl)c3c(Cl)c[nH]c23)cn1 [Compound 170, N-(3,4-dichloro-1H-indol-7-yl)-1-(2-hydroxy-1,1-dimethyl-ethyl)pyrazole-4-sulfonamide] | 250 to 1000 | < 250
CC(CO)n1cc(S(=O)(=O)Nc2ccc(Cl)c3c(Cl)c[nH]c23)cn1 (stereo not shown) [Compound 172, N-(3,4-dichloro-1H-indol-7-yl)-1-(2-hydroxy-1-methyl-ethyl)pyrazole-4-sulfonamide] | 250 to 1000 | < 250
CC(CO)(CO)n1cc(S(=O)(=O)Nc2ccc(Cl)c3c(Cl)c[nH]c23)cn1 [Compound 173, N-(3,4-dichloro-1H-indol-7-yl)-1-[2-hydroxy-1-(hydroxymethyl)-1-methyl-ethyl]pyrazole-4-sulfonamide] | < 250 | < 250
O=S(=O)(Nc1ccc(Cl)c2c(Cl)c[nH]c12)c1cnn(C(CO)CO)c1 [Compound 176, N-(3,4-dichloro-1H-indol-7-yl)-1-[2-hydroxy-1-(hydroxymethyl)ethyl]pyrazole-4-sulfonamide] | 250 to 1000 | < 250
CC(C)(O)Cn1cc(S(=O)(=O)Nc2ccc(Cl)c3c(Cl)c[nH]c23)cn1 [Compound 177, N-(3,4-dichloro-1H-indol-7-yl)-1-(2-hydroxy-2-methyl-propyl)pyrazole-4-sulfonamide] | 250 to 1000 | < 250
CS(=O)(=O)Cn1cc(S(=O)(=O)Nc2ccc(Cl)c3c(Cl)c[nH]c23)cn1 [Compound 181, N-(3,4-dichloro-1H-indol-7-yl)-1-(methylsulfonylmethyl)pyrazole-4-sulfonamide] | < 250 | < 250

Other lines, results leading:

EC50 [1] [nM] | IC50 [2] [nM] | Structure (SMILES)
< 250 | < 250 | Cc1ccc(NS(=O)(=O)c2cnn(C)c2N)c2[nH]cc(C#N)c12 [Compound 161, 5-amino-N-(3-cyano-4-methyl-1H-indol-7-yl)-1-methyl-pyrazole-4-sulfonamide]
250 to 1000 | < 250 | N#Cc1c[nH]c2c(NS(=O)(=O)c3cnn(CCO)c3)ccc(Cl)c12 [Compound 162, N-(4-chloro-3-cyano-1H-indol-7-yl)-1-(2-hydroxyethyl)pyrazole-4-sulfonamide]
250 to 1000 | < 250 | N#Cc1c[nH]c2c(NS(=O)(=O)c3cnn(C(CO)(CO)CCl)c3)ccc(Cl)c12 [Compound 164, N-(4-chloro-3-cyano-1H-indol-7-yl)-1-[1-(chloromethyl)-2-hydroxy-1-(hydroxymethyl)ethyl]pyrazole-4-sulfonamide]
250 to 1000 | < 250 | N#Cc1c[nH]c2c(NS(=O)(=O)c3cnn(C4(CO)COC4)c3)ccc(Cl)c12 [Compound 165, N-(4-chloro-3-cyano-1H-indol-7-yl)-1-[3-(hydroxymethyl)oxetan-3-yl]pyrazole-4-sulfonamide]
250 to 1000 | < 250 | COC(=O)C(C)(C)n1cc(S(=O)(=O)Nc2ccc(Cl)c3c(C#N)c[nH]c23)cn1 [Compound 169, methyl 2-[4-[(4-chloro-3-cyano-1H-indol-7-yl)sulfamoyl]pyrazol-1-yl]-2-methyl-propanoate]
< 250 | < 250 | CC(C)(CO)n1cc(S(=O)(=O)Nc2ccc(Cl)c3c(C#N)c[nH]c23)cn1 [Compound 171, N-(4-chloro-3-cyano-1H-indol-7-yl)-1-(2-hydroxy-1,1-dimethyl-ethyl)pyrazole-4-sulfonamide]
250 to 1000 | < 250 | N#Cc1c[nH]c2c(NS(=O)(=O)c3cnn([C@H]4C[C@@H](O)C4)c3)ccc(Cl)c12 [Compound 174, N-(4-chloro-3-cyano-1H-indol-7-yl)-1-(3-hydroxycyclobutyl)pyrazole-4-sulfonamide]
250 to 1000 | < 250 | N#Cc1c[nH]c2c(NS(=O)(=O)c3cnn([C@H]4C[C@H](O)C4)c3)ccc(Cl)c12 [Compound 175, N-(4-chloro-3-cyano-1H-indol-7-yl)-1-(3-hydroxycyclobutyl)pyrazole-4-sulfonamide]
> 1000 | < 250 | CC(C)(N)Cn1cc(S(=O)(=O)Nc2ccc(Cl)c3c(C#N)c[nH]c23)cn1 [Compound 178, 1-(2-amino-2-methyl-propyl)-N-(4-chloro-3-cyano-1H-indol-7-yl)pyrazole-4-sulfonamide]
250 to 1000 | < 250 | N#Cc1c[nH]c2c(NS(=O)(=O)c3cnn(CC4(O)CCC4)c3)ccc(Cl)c12 [Compound 179, N-(4-chloro-3-cyano-1H-indol-7-yl)-1-[(1-hydroxycyclobutyl)methyl]pyrazole-4-sulfonamide]
< 250 | < 250 | Cn1ncc(S(=O)(=O)Nc2ccc(Cl)c3c(C#N)c[nH]c23)c1N [Compound 180, 5-amino-N-(4-chloro-3-cyano-1H-indol-7-yl)-1-methyl-pyrazole-4-sulfonamide]
250 to 1000 | < 250 | CS(=O)(=O)Cn1cc(S(=O)(=O)Nc2ccc(Cl)c3c(C#N)c[nH]c23)cn1 [Compound 182, N-(4-chloro-3-cyano-1H-indol-7-yl)-1-(methylsulfonylmethyl)pyrazole-4-sulfonamide]
250 to 1000 | < 250 | N#Cc1c[nH]c2c(NS(=O)(=O)c3cnn(CC4(C#N)CC4)c3)ccc(Cl)c12 [Compound 183, N-(4-chloro-3-cyano-1H-indol-7-yl)-1-[(1-cyanocyclopropyl)methyl]pyrazole-4-sulfonamide]
